≈ marks a conversion by molar mass, not a printed value.
Experiments:
Format in all cases: cell-based
ESCHERICHIA COLI JUHL = conditions: E. coli JUHL; BHI agar; unit assumed
[1] = test system: PSEUDOMONAS AERUGINOSA DPHD-5263; assay: In vitro antibacterial activity, MIC, BHI agar dilution; conditions: P. aeruginosa DPHD-5263, unit assumed
[2] = test system: STREPTOCOCCUS BOVIS A-5169; assay: as above; conditions: S. bovis A-5169, unit assumed
[3] = test system: KLEBSIELLA PNEUMONIAE ATCC 8045; assay: as above; conditions: K. pneumoniae ATCC 8045, unit assumed
[4] = test system: PSEUDOMONAS AERUGINOSA BMH10; assay: as above; conditions: P. aeruginosa BMH10, unit assumed
ESCHERICHIA COLI KNK 437 = conditions: E. coli KNK 437; BHI agar; unit assumed
[5] = test system: PSEUDOMONAS AERUGINOSA DPHD-2862; assay: In vitro antibacterial activity, MIC, BHI agar dilution; conditions: P. aeruginosa DPHD-2862, unit assumed
ESCHERICHIA COLI DC-2 = assay: as above; conditions: E. coli DC-2, unit assumed
[6] = test system: STAPHYLOCOCCUS AUREUS CMX 553; assay: as above; conditions: S. aureus CMX 553, unit assumed
[7] = test system: STREPTOCOCCUS PYOGENES PIU 2548; assay: as above; conditions: S. pyogenes PIU 2548, unit assumed
[8] = test system: ACINETOBACTER CALCOACETICUS CMX 669; assay: as above; conditions: A. calcoaceticus CMX 669, unit assumed
[9] = test system: ENTEROBACTER AEROGENES ATCC 13048; assay: as above; conditions: E. aerogenes ATCC 13048, unit assumed
PSEUDOMONAS CEPACIA 296I = assay: as above; conditions: P. cepacia 296I, unit assumed
ESCHERICHIA COLI H560 = assay: as above; conditions: E. coli H560, unit assumed
[10] = test system: MYCOBACTERIUM SMEGMATIS ATCC 114; assay: as above; conditions: M. smegmatis ATCC 114, unit assumed
[11] = test system: STAPHYLOCOCCUS EPIDERMIDIS 3519; conditions: S. epidermidis 3519; BHI agar; unit assumed
[12] = test system: STAPHYLOCOCCUS AUREUS NCTC10649M; assay: In vitro antibacterial activity, MIC, BHI agar dilution; conditions: S. aureus NCTC10649M, unit assumed
[13] = test system: PSEUDOMONAS AERUGINOSA K799/WT; assay: as above; conditions: P. aeruginosa K799/WT, unit assumed
CANDIDA ALBICANS CCH 442 = assay: as above; conditions: C. albicans CCH 442, unit assumed
[14] = test system: PSEUDOMONAS AERUGINOSA 5007; assay: as above; conditions: P. aeruginosa 5007, unit assumed
[15] = test system: STAPHYLOCOCCUS AUREUS A-5278; assay: as above; conditions: S. aureus A-5278, unit assumed
[16] = test system: STAPHYLOCOCCUS AUREUS ATCC 6538P; assay: as above; conditions: S. aureus ATCC 6538P, 35-37° C., 20 to 24 hours, unit assumed
[17] = test system: STAPHYLOCOCCUS AUREUS CMX 642A; assay: as above; conditions: S. aureus CMX 642A, unit assumed
[18] = test system: STREPTOCOCCUS PYOGENES 930; assay: as above; conditions: S. pyogenes 930, unit assumed
[19] = test system: PROVIDENCIA STUARTII CMX 640; conditions: P. stuartii CMX 640; BHI agar; unit assumed
[20] = test system: PSEUDOMONAS AERUGINOSA K799/61; assay: In vitro antibacterial activity, MIC, BHI agar dilution; conditions: P. aeruginosa K799/61, unit assumed
M[…] ATCC 9341 = assay: as above; conditions: M. luteus ATCC 9341, unit assumed
In short: (§1)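 MIC was read visually as the lowest drug concentration showing no growth, a slight haze or sparsely isolated colonies relative to a compound-free BHI plate. Plates held serial aqueous dilutions in BHI agar, were spot-inoculated with 1:100 (or 1:10) culture dilutions and incubated 20 to 24 hours at 35-37° C.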

EN[…] ATCC 8043 = assay: as above; conditions: E. faecium ATCC 8043, unit assumed
In short: as §1

STR[…] 508 = assay: as above; conditions: S. agalactiae CMX 508, unit assumed
In short: as §1

M[…] ATCC 4698 = assay: as above; conditions: M. luteus ATCC 4698, unit assumed
In short: as §1

ESCHERICHIA COLI SS = assay: as above; conditions: E. coli SS, unit assumed
[21] = test system: STAPHYLOCOCCUS AUREUS 1775; assay: as above; conditions: S. aureus 1775, unit assumed
[22] = test system: STREPTOCOCCUS PYOGENES EES61; assay: as above; conditions: S. pyogenes EES61, unit assumed

Row | SMILES | MIC (ESCHERICHIA COLI JUHL) [µg/mL] | MIC [1] [µg/mL] | MIC [2] [µg/mL] | MIC [3] [µg/mL] | MIC [4] [µg/mL] | MIC (ESCHERICHIA COLI KNK 437) [µg/mL] | MIC [5] [µg/mL] | MIC (ESCHERICHIA COLI DC-2) [µg/mL] | MIC [6] [µg/mL] | MIC [7] [µg/mL] | MIC [8] [µg/mL] | MIC [9] [µg/mL] | MIC (PSEUDOMONAS CEPACIA 296I) [µg/mL] | MIC (ESCHERICHIA COLI H560) [µg/mL] | MIC [10] [µg/mL] | MIC [11] [µg/mL] | MIC [13] [µg/mL] | MIC (CANDIDA ALBICANS CCH 442) [µg/mL] | MIC [14] [µg/mL] | MIC [15] [µg/mL] | other results
1 | CC[C@H]1OC(=O)[C@H](C)C(=O)[C@H](C)[C@@H](O[C@@H]2O[C@H](C)C[C@H](N(C)C)[C@H]2O)[C@](C)(OC)C[C@@H](C)C2=N[C@H](COCc3ccc(Cl)cc3)CN3C(=O)O[C@@]1(C)[C@H]3[C@H]2C [Example 79] | > 100 | > 100 | 0.01 (≈ 0.0126 µM) | > 100 | > 100 | > 100 | > 100 | > 100 | 0.39 (≈ 0.492 µM) | 0.39 (≈ 0.492 µM) | 100 (≈ 126 µM) | > 100 | 100 (≈ 126 µM) | > 100 | 0.78 (≈ 0.984 µM) | 0.39 (≈ 0.492 µM) | > 100 | 100 (≈ 126 µM) | > 100 | 100 (≈ 126 µM) | MIC [12]: 0.39 µg/mL (≈ 0.492 µM); MIC [16]: 0.39 µg/mL (≈ 0.492 µM); MIC [17]: 0.39 µg/mL (≈ 0.492 µM); MIC [18]: 50 µg/mL (≈ 63.1 µM); MIC [19]: > 100 µg/mL; MIC [20]: 3.1 µg/mL (≈ 3.91 µM); MIC (M[…] ATCC 9341): 0.05 µg/mL (≈ 0.0631 µM); MIC (EN[…] ATCC 8043): 0.1 µg/mL (≈ 0.126 µM); MIC (STR[…] 508): ≤ 0.005 µg/mL; MIC (M[…] ATCC 4698): 0.39 µg/mL (≈ 0.492 µM); MIC (ESCHERICHIA COLI SS): 1.56 µg/mL (≈ 1.97 µM); MIC [21]: 100 µg/mL (≈ 126 µM); MIC [22]: 0.01 µg/mL (≈ 0.0126 µM)
2 | CC[C@H]1OC(=O)[C@H](C)C(=O)[C@H](C)[C@@H](O[C@@H]2O[C@H](C)C[C@H](N(C)C)[C@H]2O)[C@](C)(OC)C[C@@H](C)C2=N[C@H](COCc3cccc(Cl)c3)CN3C(=O)O[C@@]1(C)[C@H]3[C@H]2C [Example 80] | > 100 | > 100 | ≤ 0.005 | > 100 | > 100 | > 100 | > 100 | > 100 | 0.39 (≈ 0.492 µM) | 0.2 (≈ 0.252 µM) | 100 (≈ 126 µM) | > 100 | 100 (≈ 126 µM) | > 100 | 1.56 (≈ 1.97 µM) | 0.39 (≈ 0.492 µM) | > 100 | 100 (≈ 126 µM) | > 100 | 100 (≈ 126 µM) | MIC [16]: 0.39 µg/mL (≈ 0.492 µM); MIC [17]: 0.39 µg/mL (≈ 0.492 µM); MIC [18]: 50 µg/mL (≈ 63.1 µM); MIC [19]: > 100 µg/mL; MIC [20]: 3.1 µg/mL (≈ 3.91 µM); MIC (M[…] ATCC 9341): 0.05 µg/mL (≈ 0.0631 µM); MIC (EN[…] ATCC 8043): 0.05 µg/mL (≈ 0.0631 µM); MIC (STR[…] 508): ≤ 0.005 µg/mL; MIC (M[…] ATCC 4698): 0.2 µg/mL (≈ 0.252 µM); MIC (ESCHERICHIA COLI SS): 1.56 µg/mL (≈ 1.97 µM); MIC [21]: 100 µg/mL (≈ 126 µM); MIC [22]: 0.01 µg/mL (≈ 0.0126 µM)
3 | CC[C@H]1OC(=O)[C@H](C)C(=O)[C@H](C)[C@@H](O[C@@H]2O[C@H](C)C[C@H](N(C)C)[C@H]2O)[C@](C)(OC)C[C@@H](C)C2=NC3CN(CCOC)CC3N3C(=O)O[C@@]1(C)[C@H]3[C@H]2C (stereo partly drawn) [Example 126] | > 100 | > 100 | 0.02 (≈ 0.0271 µM) | > 100 | > 100 | > 100 | > 100 | > 100 | 1.56 (≈ 2.12 µM) | 1.56 (≈ 2.12 µM) | 100 (≈ 136 µM) | > 100 | > 100 | > 100 | 12.5 (≈ 17 µM) | 1.56 (≈ 2.12 µM) | > 100 | > 100 | > 100 | > 100 | MIC [17]: 1.56 µg/mL (≈ 2.12 µM); MIC [18]: > 100 µg/mL; MIC [19]: > 100 µg/mL; MIC [20]: 3.1 µg/mL (≈ 4.21 µM); MIC (M[…] ATCC 9341): 0.2 µg/mL (≈ 0.271 µM); MIC (EN[…] ATCC 8043): 0.2 µg/mL (≈ 0.271 µM); MIC (STR[…] 508): 0.05 µg/mL (≈ 0.0678 µM); MIC (M[…] ATCC 4698): 0.78 µg/mL (≈ 1.06 µM); MIC (ESCHERICHIA COLI SS): 0.78 µg/mL (≈ 1.06 µM); MIC [21]: > 100 µg/mL; MIC [22]: 0.05 µg/mL (≈ 0.0678 µM)

From patent US6274715A, “Tricyclic erythromycin derivatives” (priority 1997, dated 2001)
